Common to all, as to assay type: biochemical
For one experiment, the target named is CDK2 (Homo sapiens (Human), UniProt P24941). The experiment in a line: Invitrogen kinase assay, inhibition of CDK2. Conditions: co-factor cyclin A; read-out: IC50 against CDK2. The procedure:
(§1) Compounds of the disclosure were assayed using Invitrogen CDK7 assay against a variety of kinases. Exemplary results are presented as IC50 values (see Table 1 and Table 2). The co-factors used for each kinase in the assays were as follows: CDK7: cyclin H and MNAT1; CDK2: cyclin A; CDK9: cyclin T1.

Another experiment concerns the target CDK7 (Homo sapiens (Human), UniProt P50613). The experiment in a line: Invitrogen CDK7 assay, inhibition of CDK7. The note with it: co-factors cyclin H and MNAT1; read-out: IC50 against CDK7. How it is done:
as §1

The next experiment concerns the target CDK9 (Homo sapiens (Human), UniProt P50750). The experiment in a line: Invitrogen kinase assay, inhibition of CDK9. Conditions: co-factor cyclin T1; read-out: IC50 against CDK9. How it is done:
as §1

Among the data in patent US12281126B2, “Inhibitors of cyclin-dependent kinase 7 and uses thereof” (Dana-Farber Cancer Institute, Inc., priority 2018, dated 2025) are IC50 values, retold here.

Usually IC50 stands for the concentration needed to halve the response being measured.

Chain of CDK9 (P50750 whole entry): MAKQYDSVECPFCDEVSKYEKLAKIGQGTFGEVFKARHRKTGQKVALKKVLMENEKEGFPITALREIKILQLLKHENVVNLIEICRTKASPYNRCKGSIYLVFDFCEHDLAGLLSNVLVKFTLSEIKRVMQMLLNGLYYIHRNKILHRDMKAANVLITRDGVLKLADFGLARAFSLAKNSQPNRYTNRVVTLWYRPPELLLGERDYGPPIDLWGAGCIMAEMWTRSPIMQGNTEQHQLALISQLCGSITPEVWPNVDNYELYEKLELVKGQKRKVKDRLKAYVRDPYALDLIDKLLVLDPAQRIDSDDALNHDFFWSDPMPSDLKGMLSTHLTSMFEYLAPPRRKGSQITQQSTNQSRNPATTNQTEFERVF
Chain of CDK9 (O60563 whole entry partner): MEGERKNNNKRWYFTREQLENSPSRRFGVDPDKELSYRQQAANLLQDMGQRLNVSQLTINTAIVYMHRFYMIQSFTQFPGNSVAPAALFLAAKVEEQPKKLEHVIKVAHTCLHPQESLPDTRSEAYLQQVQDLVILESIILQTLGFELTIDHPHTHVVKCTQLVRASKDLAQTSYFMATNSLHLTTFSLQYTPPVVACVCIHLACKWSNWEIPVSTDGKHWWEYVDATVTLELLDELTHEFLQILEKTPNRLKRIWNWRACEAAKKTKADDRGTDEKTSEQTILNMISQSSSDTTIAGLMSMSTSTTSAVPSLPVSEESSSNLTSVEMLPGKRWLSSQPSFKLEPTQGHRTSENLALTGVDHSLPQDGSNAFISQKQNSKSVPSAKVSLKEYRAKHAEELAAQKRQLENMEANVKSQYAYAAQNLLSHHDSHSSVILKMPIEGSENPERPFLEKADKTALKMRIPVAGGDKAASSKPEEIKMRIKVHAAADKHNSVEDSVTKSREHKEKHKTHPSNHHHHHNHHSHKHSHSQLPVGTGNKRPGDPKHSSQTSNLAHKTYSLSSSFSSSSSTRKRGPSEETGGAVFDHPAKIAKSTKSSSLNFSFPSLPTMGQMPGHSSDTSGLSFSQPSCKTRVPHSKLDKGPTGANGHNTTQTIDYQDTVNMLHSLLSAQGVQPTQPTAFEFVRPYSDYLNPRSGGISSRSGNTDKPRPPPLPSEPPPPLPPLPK
Chain of CDK7 (P50613 whole entry): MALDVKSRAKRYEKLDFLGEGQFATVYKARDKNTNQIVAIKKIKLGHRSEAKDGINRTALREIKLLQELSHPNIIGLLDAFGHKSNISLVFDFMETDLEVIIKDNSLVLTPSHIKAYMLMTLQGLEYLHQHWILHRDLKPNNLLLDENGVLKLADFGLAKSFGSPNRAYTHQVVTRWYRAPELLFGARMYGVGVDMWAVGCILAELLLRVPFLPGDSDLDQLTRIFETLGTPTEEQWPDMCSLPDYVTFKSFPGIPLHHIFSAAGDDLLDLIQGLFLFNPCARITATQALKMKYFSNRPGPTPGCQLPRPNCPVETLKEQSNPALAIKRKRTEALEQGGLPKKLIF
Chain of CDK7 (P51946 whole entry partner): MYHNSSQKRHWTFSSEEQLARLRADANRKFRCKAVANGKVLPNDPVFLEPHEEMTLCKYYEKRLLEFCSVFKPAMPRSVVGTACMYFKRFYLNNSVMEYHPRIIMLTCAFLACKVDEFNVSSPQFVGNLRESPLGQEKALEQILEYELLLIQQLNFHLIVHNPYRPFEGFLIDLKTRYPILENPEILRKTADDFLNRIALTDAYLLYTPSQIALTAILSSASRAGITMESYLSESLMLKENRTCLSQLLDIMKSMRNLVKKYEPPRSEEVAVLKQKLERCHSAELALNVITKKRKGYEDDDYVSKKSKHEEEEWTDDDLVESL
Chain of CDK7 (P51948 whole entry partner): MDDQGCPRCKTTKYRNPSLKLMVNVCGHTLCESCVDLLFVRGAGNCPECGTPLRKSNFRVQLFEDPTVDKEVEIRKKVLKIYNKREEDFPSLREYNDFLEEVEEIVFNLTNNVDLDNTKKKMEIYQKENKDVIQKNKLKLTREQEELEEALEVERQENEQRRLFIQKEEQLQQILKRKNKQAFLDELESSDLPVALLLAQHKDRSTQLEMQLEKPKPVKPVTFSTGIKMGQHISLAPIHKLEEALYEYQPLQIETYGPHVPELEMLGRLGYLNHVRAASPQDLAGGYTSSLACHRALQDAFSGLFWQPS

Regarding `C=CC(=O)Nc1ccc(C(=O)Nc2n[nH]c3c2CN(C(=O)NC2CN(C)Cc4ccccc42)C3(C)C)cc1` (stereo not drawn) [Compound 207, 3-(4-acrylamidobenzamido)-6,6-dimethyl-N-(2-methyl-1,2,3,4-tetrahydroisoquinolin-4-yl)-4,6-dihydropyrrolo[3,4-c]pyrazole-5(1H)-carboxamide], the IC50 was 3410 nM on CDK2, 15.4 nM at CDK7 and above 10000 nM on CDK9.

Turning to `CN(C)C[C@@H](NC(=O)N1Cc2c(Nc3ccnc(C(F)(F)F)n3)n[nH]c2C1(C)C)C1CCOCC1` [Compound 208, (S)—N-(2-(dimethylamino)-1-(tetrahydro-2H-pyran-4-yl)ethyl)-6,6-dimethyl-3-((2-(trifluoromethyl)pyrimidin-4-yl)amino)-4,6-dihydropyrrolo[3,4-c]pyrazole-5(1H)-carboxamide], the values for the IC50 at CDK2, at CDK7 and at CDK9 were 4520 nM, 10.8 nM and above 10000 nM, respectively.

On to `C=CC(=O)Nc1cnc(Nc2n[nH]c3c2CN(C(=O)N[C@H](CN(C)C)C2CCOCC2)C3(C)C)nc1` [Compound 206, (S)-3-((5-acrylamidopyrimidin-2-yl)amino)-N-(2-(dimethylamino)-1-(tetrahydro-2H-pyran-4-yl)ethyl)-6,6-dimethyl-4,6-dihydropyrrolo[3,4-c]pyrazole-5(1H)-carboxamide], for which the IC50 on CDK2 was above 10000 nM; on CDK7 it was 732 nM; on CDK9, above 10000 nM.

Consider `Cc1nc(Nc2n[nH]c3c2CN(C(=O)N[C@H](CN(C)C)C2CCOCC2)C3(C)C)c2sccc2n1` [Compound 201, (S)—N-(2-(dimethylamino)-1-(tetrahydro-2H-pyran-4-yl)ethyl)-6,6-dimethyl-3-((2-methylthieno[3,2-d]pyrimidin-4-yl)amino)-4,6-dihydropyrrolo[3,4-c]pyrazole-5(1H)-carboxamide], for which the half-maximal inhibitory concentration (IC50) at CDK2 is above 10000 nM; on CDK7, 39.1 nM; at CDK9, above 10000 nM.

With `C=CC(=O)Nc1ccc(Nc2n[nH]c3c2CN(C(=O)N[C@H](CN(C)C)C2CCOCC2)C3(C)C)nc1` [Compound 204, (S)-3-((5-acrylamidopyridin-2-yl)amino)-N-(2-(dimethylamino)-1-(tetrahydro-2H-pyran-4-yl)ethyl)-6,6-dimethyl-4,6-dihydropyrrolo[3,4-c]pyrazole-5(1H)-carboxamide], the IC50 is above 10000 nM on CDK2, 407 nM at CDK7 and above 10000 nM at CDK9.

`C=CC(=O)Nc1ccc(Nc2n[nH]c3c2CN(C(=O)N[C@H](CN(C)C)C2CCOCC2)C3(C)C)cc1` [Compound 209, (S)-3-((4-acrylamidophenyl)amino)-N-(2-(dimethylamino)-1-(tetrahydro-2H-pyran-4-yl)ethyl)-6,6-dimethyl-4,6-dihydropyrrolo[3,4-c]pyrazole-5(1H)-carboxamide]: the figures for the IC50 on CDK2, on CDK7 and on CDK9 were above 10000 nM, 3310 nM and above 10000 nM, respectively.

For `C=CC(=O)Nc1cccc2c(Nc3n[nH]c4c3CN(C(=O)N[C@H](CN(C)C)C3CCOCC3)C4(C)C)nccc12` [Compound 203, (S)-3-((5-acrylamidoisoquinolin-1-yl)amino)-N-(2-(dimethylamino)-1-(tetrahydro-2H-pyran-4-yl)ethyl)-6,6-dimethyl-4,6-dihydropyrrolo[3,4-c]pyrazole-5(1H)-carboxamide], the IC50 was above 10000 nM at CDK2, 214 nM at CDK7 and above 10000 nM at CDK9.

`C=CC(=O)Nc1ccc2c(Nc3n[nH]c4c3CN(C(=O)N[C@H](CN(C)C)C3CCOCC3)C4(C)C)nccc2c1` [Compound 202, (S)-3-((6-acrylamidoisoquinolin-1-yl)amino)-N-(2-(dimethylamino)-1-(tetrahydro-2H-pyran-4-yl)ethyl)-6,6-dimethyl-4,6-dihydropyrrolo[3,4-c]pyrazole-5(1H)-carboxamide]: the IC50 is above 1110 nM on CDK2, 69 nM at CDK7 and above 10000 nM at CDK9.

With `C=CC(=O)Nc1ccc(C(=O)Nc2n[nH]c3c2CN(C(=O)NC2(CN(C)C)CC2)C3(C)C)cc1` [Compound 065, 3-(4-acrylamidobenzamido)-N-(1-((dimethylamino)methyl)cyclopropyl)-6,6-dimethyl-4,6-dihydropyrrolo[3,4-c]pyrazole-5(1H)carboxamide], the IC50 was above 10000 nM on CDK2, 61.1 nM at CDK7 and above 10000 nM at CDK9.

For the compound `Cc1nc(Nc2n[nH]c3c2CN(C(=O)N[C@H](CN(C)C)C2CCOCC2)C3(C)C)c2ccsc2n1` [Compound 200, (S)—N-(2-(dimethylamino)-1-(tetrahydro-2H-pyran-4-yl)ethyl)-6,6-dimethyl-3-((2-methylthieno[2,3-d]pyrimidin-4-yl)amino)-4,6-dihydropyrrolo[3,4-c]pyrazole-5(1H)-carboxamide], the values for the IC50 on CDK2, at CDK7 and at CDK9 were above 10000 nM, 18.5 nM and above 10000 nM, respectively.

Consider `C=CC(=O)Nc1ccc(C(=O)Nc2n[nH]c3c2CN(C(=O)NC(CN(C)C)C2CCOC2)C3(C)C)cc1` (stereo not drawn) [Compound 079, 3-(4-acrylamidobenzamido)-N-(2-(dimethylamino)-1-(tetrahydrofuran-3-yl)ethyl)-6,6-dimethyl-4,6-dihydropyrrolo[3,4-c]pyrazole-5(1H)-carboxamide], for which the IC50 at CDK2 is above 10000 nM; at CDK7 it was 190 nM; at CDK9, 1060 nM.

Turning to `C=CC(=O)Nc1ccc(C(=O)Nc2n[nH]c3c2CN(C(=O)N[C@H]2CCCN(C)C2)C3(C)C)cc1` [Compound 210, (S)-3-(4-acrylamidobenzamido)-6,6-dimethyl-N-(1-methylpiperidin-3-yl)-4,6-dihydropyrrolo[3,4-c]pyrazole-5(1H)-carboxamide], the IC50 at CDK2 amounted to 161 nM; at CDK7, 48.4 nM; at CDK9, 1740 nM.

`C=CC(=O)Nc1ccc(C(=O)Nc2n[nH]c3c2CN(C(=O)N[C@H](CN(C)C)C2CCOCC2)C3(C)C)cc1` [Compound 205, (S)-3-(4-acrylamidobenzamido)-N-(2-(dimethylamino)-1-(tetrahydro-2H-pyran-4-yl)ethyl)-6,6-dimethyl-4,6-dihydropyrrolo[3,4-c]pyrazole-5(1H)-carboxamide]: the IC50 was above 370 nM on CDK2, 12.8 nM on CDK7 and 4010 nM on CDK9.
